In patent publication US9181265B2, “Substituted 2,3-dihydro-1H-benzo[a]pyrano[2,3-c]phenazines as anti-angiogenic and anti-cancer agents” (UNIVERSITE CATHOLIQUE DE LOUVAIN, priority 2010, dated 2015):
Read-outs that look alike come from different tables or passages of the source.

Assays:
[1] = tested on: Human umbilical vein endothelial cells (HUVEC); test: MTT test of overall cell growth, endothelial cells, normoxic or hypoxic conditions; assay type: cell-based; details: for Selectivity: if u.t.d., ratio of activity at 100 μM
Experimental: (§1) MTT tests were performed in order to rapidly, i.e. within 3 days, measure the effect of compounds of this invention on the overall cell growth. The test measured the number of metabolically active living cells that were able to transform the yellow product 3-(4,5-dimethylthiazol-2-yl)-2,5-diphenyl tetrazolium bromide (herein referred as MTT) into the blue product formazan dye by mitochondrial reduction. The amount of formazan obtained at the end of the experiment, measured by means of a spectrophotometer (Plate Reader Victor X4 Microplate reader (Perkin Elmer), is directly proportional to the number of living cells. Optical density determination thus enabled a quantitative measurement of the effect of the investigated compounds under control conditions (normoxia) as compared to the hypoxic conditions (0.1 or 1% O2) and/or untreated conditions.
(§2) Human umbilical vein endothelial cells (HUVEC) and six human cancer cell lines were used in the MTT tests. These cancer cell lines cover five histological cancer types including cervix (SiHa), breast (MCF-7 and MDA-MB231), prostate (PC3), glioma (U373), and colorectal (LoVo) cancers.
(§3) To perform the assay, cells were allowed to grow in 96-well microplates with a flat bottom following addition of an amount of 100 μl of cell suspension per well with 4,500 cells/well. Each cell line was seeded in its appropriate culture medium. HUVEC were cultured in a specific endothelial cell growth medium (ECACC, Sigma); SiHa cells in Glutamax-containing DMEM with 4.5 g/1 glucose (Invitrogen) supplemented with 10% Foetal Bovine Serum (PAA) and 1% penicillin+streptomycin mix (Invitrogen); MCF-7, MDA-MB-231, PC3, and LoVo cells in Glutamax-containing RPMI supplemented with 10% Foetal Bovine Serum (PAA) and 1% penicillin+streptomycin mix (Invitrogen) and U373 cells in Glutamax-containing DMEM (Invitrogen) with 5% Foetal Bovine Serum (PAA) and 1% penicillin+streptomycin mix (Invitrogen).
(§4) The detailed experimental procedure was the following: after a 24-hour period of incubation at 37° C., the culture medium was replaced by 100 μl of fresh medium in which the tested compound was previously dissolved, at the following concentrations: 10^−8 M, 5.10^−8, 10^−7, 5.10^−7, 10^−6, 5.10^−6, 10^−5, 5.10^−5 and 10^−[…]. Each experiment was performed in sestuplicates (6 times).
(§5) Cells were then incubated under normoxia in a Binder incubator (the O2 level corresponding to the concentration in the ambient air), or in a Ruskin hypoxia workstation under either 0.1% O2 (v/v) or 1% O2 (v/v). Under both conditions, the atmosphere was humidified and the CO2 concentration was fixed at 5 vol. %.
(§6) After 72 hours of incubation at 37° C. under normoxic or hypoxic conditions, with or without the compound to be tested, the medium was replaced by 100 μl of HBSS (without phenol red) containing MTT at a concentration of 0.5 or 1 mg/ml. The micro-wells were subsequently incubated during 3 hours and a half at 37° C. and centrifuged at 1300 rpm during 10 minutes. Medium was removed and formazan crystals formed were dissolved in 100 μl DMSO. The micro-wells were shaken for 5 minutes and read on a spectrophotometer at wavelengths of 570 nm (maximal formazan absorbance).
(§7) For each experimental condition, the mean optical density was calculated, allowing the determination of the percentage of living cells in comparison to the control.

[2] = tested on: MDA-MB-231; test: MTT test of overall cell growth, MDA-MB-231 breast cancer cells, normoxia or hypoxia; assay type: cell-based, human; details: for Selectivity: MDA-MB-231, IC50 (normoxia)/IC50 (hypoxia 1% O2), if u.t.d., ratio of activity at 100 μM
Experimental: as §1, §2, §3, §4, §5, §6, §7

[3] = tested on: MCF-7; test: MTT test of overall cell growth, MCF-7 breast cancer cells, normoxia or hypoxia; assay type: cell-based, human; details: for Selectivity: MCF-7, IC50 (normoxia)/IC50 (hypoxia 1% O2), if u.t.d., ratio of activity at 100 μM
Experimental: as §1, §2, §3, §4, §5, §6, §7

[4] = tested on: PC3; test: MTT test of overall cell growth, PC3 prostate cancer cells, normoxia or hypoxia; assay type: cell-based, human; details: for Selectivity: PC3, IC50 (normoxia)/IC50 (hypoxia 1% O2), if u.t.d., ratio of activity at 100 μM
Experimental: as §1, §2, §3, §4, §5, §6, §7

[5] = tested on: LoVo; test: MTT test of overall cell growth, LoVo colorectal cancer cells, normoxia or hypoxia; assay type: cell-based, human; details: for Selectivity: IC50 (normoxia)/IC50 (hypoxia 1% O2), if u.t.d., ratio of activity at 100 μM
Experimental: as §1, §2, §3, §4, §5, §6, §7

[6] = tested on: siHa; test: MTT test of overall cell growth, SiHa cervix cancer cells, normoxia or hypoxia; assay type: cell-based, human; details: for Selectivity: IC50 (normoxia)/IC50 (hypoxia 1% O2), if u.t.d., ratio of activity at 100 μM
Experimental: as §1, §2, §3, §4, §5, §6, §7

[7] = tested on: U373; test: MTT test of overall cell growth, U373 glioma cells, normoxia or hypoxia; assay type: cell-based, human; details: for Selectivity: U373, IC50 (normoxia)/IC50 (hypoxia 1% O2), if u.t.d., ratio of activity at 100 μM
Experimental: as §1, §2, §3, §4, §5, §6, §7

[8] = IC50 (normoxia)/IC50 (hypoxia 0.1%)
[9] = IC50 (normoxia)/IC50 (hypoxia 1%)
[10] = hypoxia 1% O2, 72 h, read-out: IC50 (μM) Hypoxia 1% O2
[11] = normoxia, 72 h, read-out: IC50 (μM) Normoxia
[12] = Homo sapiens, 72 h, hypoxia 0.1% O2, 72 h, read-out: IC50 (μM) Hypoxia 0.1%
[13] = Homo sapiens, 72 h, hypoxia 1% O2, 72 h, read-out: IC50 (μM) Hypoxia 1%
[14] = Homo sapiens, 72 h, normoxia, 72 h, series compared with hypoxia 0.1%, read-out: IC50 (μM) Normoxia
[15] = Homo sapiens, 72 h, normoxia, 72 h, series compared with hypoxia 1%, read-out: IC50 (μM) Normoxia
[16] = Homo sapiens, MDA-MB-231, hypoxia 1% O2, 72 h, read-out: IC50 (μM) Hypoxia 1% O2
[17] = Homo sapiens, MDA-MB-231, normoxia, 72 h, read-out: IC50 (μM) Normoxia
[18] = Homo sapiens, MCF7, MCF-7, hypoxia 1% O2, 72 h, read-out: IC50 (μM) Hypoxia 1% O2
[19] = Homo sapiens, MCF7, MCF-7, normoxia, 72 h, read-out: IC50 (μM) Normoxia
[20] = Homo sapiens, PC-3, PC3, hypoxia 1% O2, 72 h, read-out: IC50 (μM) Hypoxia 1% O2
[21] = Homo sapiens, PC-3, PC3, normoxia, 72 h, read-out: IC50 (μM) Normoxia
[22] = Homo sapiens, hypoxia 1% O2, 72 h, read-out: IC50 (μM) Hypoxia 1% O2
[23] = Homo sapiens, normoxia, 72 h, read-out: IC50 (μM) Normoxia
[24] = Homo sapiens, U373 MG, U373, hypoxia 1% O2, 72 h, read-out: IC50 (μM) Hypoxia 1% O2
[25] = Homo sapiens, U373 MG, U373, normoxia, 72 h, read-out: IC50 (μM) Normoxia

IC50 [2, 16] [µM]	IC50 [2, 17] [µM]	IC50 [3, 18] [µM]	IC50 [3, 19] [µM]	IC50 [4, 20] [µM]	IC50 [4, 21] [µM]	IC50 [5, 22] [µM]	IC50 [5, 23] [µM]	Structure (SMILES)	Selectivity [1, 8]	Selectivity [1, 9]	Selectivity [2]	Selectivity [3]	Selectivity [4]	Selectivity [5]	Selectivity [6]	Selectivity [7]	IC50 [1, 12] [µM]	IC50 [1, 13] [µM]	IC50 [1, 14] [µM]	IC50 [1, 15] [µM]	other results
								CC1CCC2C(C1)c1c(c3ccccc3c3nc4ccc(C(=O)NC(CO)Cc5ccccc5)cc4nc13)OC2(C)C (mixture of isomers) [Compound 17′]	230	16	5.40	1.37	1.31	1.64	9.50	8.67					IC50 ([1]; hypoxia 0.1% O2, 72 h, read-out: IC50 (μM) Hypoxia 0.1%): 0.07 µM; IC50 ([1]; hypoxia 1% O2, 72 h, read-out: IC50 (μM) Hypoxia 1%): 0.36 µM; IC50 ([1]; normoxia, 72 h, series compared with hypoxia 0.1%, read-out: IC50 (μM) Normoxia): 17 µM; IC50 ([1]; normoxia, 72 h, series compared with hypoxia 1%, read-out: IC50 (μM) Normoxia): 5.72 µM; IC50 ([2]; MDA-MB-231, hypoxia 1% O2, 72 h, read-out: IC50 (μM) Hypoxia 1% O2): 11.1 µM; IC50 ([2]; MDA-MB-231, normoxia, 72 h, read-out: IC50 (μM) Normoxia): 59.9 µM; IC50 ([3]; MCF-7, hypoxia 1% O2, 72 h, read-out: IC50 (μM) Hypoxia 1% O2): 12.5 µM; IC50 ([3]; MCF-7, normoxia, 72 h, read-out: IC50 (μM) Normoxia): 17.2 µM; IC50 ([4]; PC3, hypoxia 1% O2, 72 h, read-out: IC50 (μM) Hypoxia 1% O2): 11.6 µM; IC50 ([4]; PC3, normoxia, 72 h, read-out: IC50 (μM) Normoxia): 15.2 µM; IC50 [5, 10]: 11.4 µM; IC50 [5, 11]: 18.8 µM; IC50 [6, 10]: 10.7 µM; IC50 [6, 11]: 102 µM; IC50 ([7]; U373, hypoxia 1% O2, 72 h, read-out: IC50 (μM) Hypoxia 1% O2): 1.34 µM; IC50 ([7]; U373, normoxia, 72 h, read-out: IC50 (μM) Normoxia): 11.6 µM
1.27	30.3	1.45	8.07	1.31	14.7	1.31	9.69	C[C@H]1CC[C@H]2[C@H](C1)c1c(c3ccccc3c3nc4cc(C(=O)N5CCOCC5)ccc4nc13)OC2(C)C (racemic) [Compound 12]	58	14	23.81	5.56	11.23	7.38	17.50	75.00	0.14	0.4	8.27	5.65	IC50 [6, 22]: 1.13 µM; IC50 [6, 23]: 19.8 µM; IC50 [7, 24]: 0.14 µM; IC50 [7, 25]: 10.6 µM
1.31	44.4	1.45	11.3	1.41	15.3	1.21	10.6	C[C@H]1CC[C@H]2[C@H](C1)c1c(c3ccccc3c3nc4ccc(C(=O)N5CCOCC5)cc4nc13)OC2(C)C (racemic) [Compound 12′]	105	29	33.85	7.78	10.86	8.75	62.07	15.00	0.04	0.14	4.24	4.14	IC50 [6, 22]: 1.17 µM; IC50 [6, 23]: 72.6 µM; IC50 [7, 24]: 0.61 µM; IC50 [7, 25]: 9.08 µM
